The results in this text go back to patent US20060148838A1, “Novel pyrrolodihydroisoquinolines useful in the treatment of cancer” (Altana Pharma AG, priority 2003, published 2006).

The subject of data set [1] is NCl-H460 non-small cell lung cancer cells. Nature of the data set: Alamar Blue cell viability assay, anti-proliferative/cytotoxic activity. It counts as cell-based. Conditions: 72 hours incubation, one range stated for all listed Examples, read-out: −log IC50 NCl-H460 (converted). As to the method: The anti-proliferative/cytotoxic activity of the compounds described herein, can be tested on NCl-H460 non-small cell lung cancer cells using the Alamar Blue cell viability assay (described in O'Brien et al. Eur J Biochem 267, 5421-5426, 2000). The compounds are dissolved as 20 mM solutions in dimethylsulfoxide (DMSO) and subsequently diluted in semi-logarithmic steps. DMSO dilutions are further diluted 1:100 into Dulbecco's modified Eagle's medium (DMEM) containing 10% fetal calf serum to a final concentration twice as much as the final concentration in the test. NCl-460 cells are seeded into 96 well flat bottom plates at a density of 4000 cells per well in a volume of 50 μl per well. 24 hours after seeding the 50 μl each of the compound dilutions in DMEM medium are added into each well of the 96 Well plate. Each compound dilution is tested as quadruplicates. Wells containing untreated control cells are filled with 50 μl DMEM medium containing 1% DMSO. The cells are then incubated with the substances for 72 hours at 37° C. In a humified atmosphere containing 5% carbon dioxide. To determine the viability of the cells, 10 μl of an Alamar Blue solution (Biosource) are added and the fluorescence is measured at an extinction of 544 nm and an emission of 590 nm. For the calculation of cell viability the emission value from untreated cells is set to 100% viability and the emission rates of treated cells are set in relation to the values of untreated cells. Viabilities are expressed as % values.
The corresponding IC50 values of the compounds for anti-proliferative/cytotoxic activity are determined from the concentration-effect curves.
Representative advantageous IC50 values for anti-proliferation/cytotoxicity determined for the compounds mentioned and numbered as Examples in the examples above follow from the following table A, in which the numbers of the compound correspond to the numbers of the examples.

The term IC50 denotes the concentration that gives 50% inhibition. For orientation: melting point means the temperature, or range, at which the solid turns liquid.

With `CCOC(=O)c1c(-c2cc(C)c(O)c(C)c2)c(C)n2c1-c1cc([N+](=O)[O-])c(OC)cc1CC2` [Example 22, 2-(4-Hydroxy-3,5-dimethyl-phenyl)-8-methoxy-3-methyl-9-nitro-5,6-dihydro-pyrrolo[2,1-a]isoquinoline-1-carboxylic acid ethyl ester], the melting point fell in the range of 209 to 211 °C. The IC50 in data set [1] is 398 to 3160 nM.

Consider `CCOC(=O)c1c(-c2cc(C)c(O)c(C)c2)c(C)n2c1-c1cc(N)c(OC)cc1CC2` [Example 25, 9-Amino-2-(4-hydroxy-3,5-dimethyl-phenyl)-8-methoxy-3-methyl-5,6-dihydro-pyrrolo[2,1-a]isoquinoline-1-carboxylic acid ethyl ester], for which the melting point lay in the range of 104 to 106 °C. The IC50 in data set [1] is 398 to 3160 nM.

In turn, `COc1cc2c(cc1OC)-c1c(C(=O)NC3CCCCC3)c(-c3cc(C)c(O)c(C)c3)c(C)n1CC2` [Example 28, 2-(4-Hydroxy-3,5-dimethyl-phenyl)-8,9-dimethoxy-3-methyl-5,6-dihydro-pyrrolo[2,1-a]isoquinoline-1-carboxylic acid cyclohexyl amide] returned a melting point of 273 to 276 °C. In addition, the IC50 in data set [1] is 398 to 3160 nM.

With `COc1cc2c(cc1OC)-c1c(C(=O)Nc3ccccc3)c(-c3cc(C)c(O)c(C)c3)c(C)n1CC2` [Example 34, 2-(4-Hydroxy-3,5-dimethyl-phenyl)-8,9-dimethoxy-3-methyl-5,6-dihydro-pyrrolo[2,1-a]isoquinoline-1-carboxylic acid phenylamide], the melting point was 271 to 273 °C. Besides, the IC50 in data set [1] is 398 to 3160 nM.

Consider `CCC(C)NC(=O)c1c(-c2cc(C)c(O)c(C)c2)c(C)n2c1-c1cc(OC)c(OC)cc1CC2` (stereo not shown) [Example 36, 2-(4-Hydroxy-3,5-dimethyl-phenyl)-8,9-dimethoxy-3-methyl-5,6-dihydro-pyrrolo[2,1-a]isoquinoline-1-carboxylic acid sec-butylamide], for which the melting point was in the range of 238 to 240 °C. In data set [1], the IC50 was 398 to 3160 nM.
